Patent US20100234349A1, “PHARMACEUTICAL COMBINATIONS OF A NICOTINE RECEPTOR MODULATOR AND A COGNITIVE ENHANCER” (priority 2006, published 2010)
Entries after “also recorded” stand apart in the source; their conditions may differ.

Tested on: mouse
Assay: mouse marble burying paradigm
Type: in vivo
Method: FIGS. 3A-3D show mouse marble burying 15 minutes after s.c. dosing of 1-(3-Pyridyl)-homopiperazine (Compound 1F of WO 99/21834) as cognition enhancer, and 30 minutes after p.o. dosing of 3-(3-Pyridin-3-yl-[1,2,4]oxadiazol-5-yl)-benzonitrile (Compound 4.15) as positive allosteric modulator: […]

Row | Compound | ED50 (Mus musculus, sc, 0.25 h, read-out: ED50, mouse marble burying) [mg/kg] | effect in mouse marble burying, positive allosteric modulator alone (alone, dosed p.o. at 3 and 10 mg/kg, 30 minutes after dosing (FIG. 3A))
1 | c1cncc(N2CCCNCC2)c1 [Compound 1F of WO 99/21834, 1-(3-Pyridyl)-homopiperazine, reference compound] | 0.56 | –
2 | N#Cc1cccc(-c2nc(-c3cccnc3)no2)c1 [Compound 4.15, 3-(3-Pyridin-3-yl-[1,2,4]oxadiazol-5-yl)-benzonitrile] | – | no effect; also recorded: inactive
